Assay results taken from patent publication US20080219963A1, “Composition Containing Micronutrients With Improved Anti-Oxidant Activity And The Use Thereof” (ACTIMEX S.R.L. AREA Science Park, priority 2005, published 2008).
≈ marks a conversion by molar mass, not a printed value.

Key:
[1] = background statement; cited from earlier work
[2] = Antioxidant activity, ORAC (Oxygen Radical Absorbance Capacity) test; format: biochemical
Experimental: Antioxidant activity was measured using the ORAC (Oxygen Radical Absorbance Capacity) test.
The test was based on measuring the inhibition induced by an antioxidant on the loss of activity of a fluorescent indicator, in the presence of oxidants.
In practice, given a fluorescent indicator (fluorescein) which loses its fluorescence due to the action of an oxidising agent (AAPH), antioxidant activity was evaluated in terms of maintenance of the fluorescence of the indicator over time, due to the ability of the antioxidant to counteract the action of the oxidising agent.
Antioxidant activity was assessed by spectrofluorometric assay, measuring the decay of the fluorescence of the indicator over time (from 0 to 360 minutes). A measuring the fluorescence of the sodium fluorescein indicator was performed using a spectrofluorimeter at a wavelength of 515 nm.
Antioxidant activity is expressed as the antioxidant power in relation to Trolox® at the same concentration of the samples.

[3] = Solubility in buffered water at pH=7 after 24 hours (equilibrium); conditions: pH 7, aqueous buffer, thermodynamic from solid
Experimental: An excess of powder is added to buffered water at pH=7 until a precipitate is obtained.

Question: With `COC1=C(OC)C(=O)C(C/C=C(\C)CC/C=C(\C)CC/C=C(\C)CC/C=C(\C)CC/C=C(\C)CC/C=C(\C)CC/C=C(\C)CC/C=C(\C)CC/C=C(\C)CCC=C(C)C)=C(C)C1=O` [UBIDECARENONE (alone), ubidecarenone] as the compound, how does the “solubility in water or in aqueous environments” value [1] read?
Answer: Its value is less than 100 µg/mL.

Question: What about the Relative antiox. activity ([2]; ubidecarenone alone at equal concentration = 1) of the same compound?
Answer: Its Relative antiox. activity is 1.

Question: And the solubility at 24 h ([3]; buffered water)?
Answer: The solubility at 24 h was 2 µg/mL (≈ 2.32 µM).

Question: With `O=c1c(-c2ccc(O)cc2)coc2cc(O)cc(O)c12` [GENISTEIN (alone), genistein] as the compound, how does the Rel. antiox. activity ([2]; genistein alone at equal concentration = 1) read?
Answer: Its Rel. antiox. activity is 1.

Question: And the solubility at 24 h [3]?
Answer: Its solubility at 24 h is 10 µg/mL (≈ 37 µM).

Question: With `O=C(O)CCCCC1CCSS1` (stereo not drawn) [LIPOIC ACID (alone), lipoic acid] as the compound, how does the Rel. antiox. activity ([2]; lipoic acid alone at equal concentration = 1) read?
Answer: The Rel. antiox. activity was 1.

Question: For `CC(C)=CCC/C(C)=C/C=C/C(C)=C/C=C/C(C)=C/C=C/C=C(C)/C=C/C=C(C)/C=C/C=C(\C)CCC=C(C)C` [LYCOPENE (alone), lycopene], which Rel. antiox. activity ([2]; lycopene alone at equal concentration = 1) is on record?
Answer: Its Rel. antiox. activity is 1.

Question: For `CC1=C(/C=C/C(C)=C/C=C/C(C)=C/C=C/C=C(C)/C=C/C=C(C)/C=C/C2=C(C)C(=O)[C@@H](O)CC2(C)C)C(C)(C)C[C@H](O)C1=O` [ASTAXANTIN (alone), astaxantin], which Rel. antiox. activity ([2]; astaxantin alone at equal concentration = 1) is on record?
Answer: Its Rel. antiox. activity is 1.

Question: For `Oc1ccc(C=Cc2cc(O)cc(O)c2)cc1` [RESVERATROL (alone), resveratrol], which solubility at 24 h ([3]; buffered water) is on record?
Answer: Its solubility at 24 h is 150 µg/mL (≈ 657 µM).
